In patent publication US7560571B2, “Substituted pyrroles and imidazoles, compositions containing same, manufacturing process therefor and use thereof” (Aventis Pharma S.A., priority 2005, dated 2009):

Legend:
human KDR enzyme = biological target: T1, human KDR enzyme (Homo sapiens, UniProt P35968); experiment: KDR substrate phosphorylation inhibition, scintillation technique; type: biochemical; conditions: GST-KDR cytoplasmic domain, PLCγ substrate, 1 hour at 37° C.; read-out: KDR IC 50
T1 construct: The cytoplasmic domain of the human KDR enzyme was cloned in the form of a GST fusion; GST; made in house; host or cells: SF21 insect cells (baculovirus)
Experimental: The inhibitory effect of the compounds is determined in an in vitro test of phosphorylation of substrate with the enzyme KDR via a scintillation technique (96-well plate, NEN).
The cytoplasmic domain of the human KDR enzyme was cloned in the form of a GST fusion in the pFastBac baculovirus expression vector. The protein was expressed in the SF21 cells and purified to about 60% homogeneity.
The KDR kinase activity is measured in 20 mM MOPS, 10 mM MgCl2, 10 mM MnCl2, 1 mM DTT, 2.5 mM EGTA, 10 mM b-glycerophosphate, pH=7.2, in the presence of 10 mM MgCl2, 100 μm Na3VO4, 1 mM NaF. 10 μl of the compound are added to 70 μL of kinase buffer containing 100 ng of KDR enzyme at 4° C. The reaction is initiated by adding 20 μL of solution containing 2 μg of substrate (SH2-SH3 fragment of PLCγ expressed in the form of a GST fusion protein), 2 μCi of γ^33P[ATP] and 2 μm of cold ATP. After incubation for 1 hour at 37° C., the reaction is stopped by adding 1 volume (100 μl) of 200 mM EDTA. The incubation buffer is removed, and the wells are washed three times with 300 μL of PBS. The radioactivity in each well is measured using a Top Count NXT radioactivity counter (Packard).
The background is determined by measuring the radioactivity in four different wells containing radioactive ATP and the substrate alone.
A total activity control is measured in four different wells containing all the reagents (γ^33P-[ATP], KDR and substrate PLCγ), but in the absence of compound.
The inhibition of the KDR activity with the compound of the invention is expressed as a percentage of inhibition of the control activity determined in the absence of compound.
Compound SU5614 (Calbiochem) (1 μm) is included in each plate as an inhibition control.

human Tie2 = biological target: T2, human Tie2 (Homo sapiens, UniProt Q02763); experiment: Tie2 phosphorylation of PLC inhibition, FlashPlate radioactivity; type: biochemical; conditions: GST-Tie2, GST-PLC substrate, one hour at 37° C.; read-out: TIE2 IC 50
T2 construct: amino acids of the intracellular domain 776-1124; made in house; host or cells: baculovirus expression system (pFastBacGT)
Experimental: The coding sequence of human Tie2 corresponding to the amino acids of the intracellular domain 776-1124 was generated by PCR using the cDNA isolated from a human placenta as a model. This sequence was introduced into a pFastBacGT baculovirus expression vector in the form of a GST fusion protein.
The inhibitory effect of the molecules is determined in a test of phosphorylation of PLC with Tie2 in the presence of GST-Tie2 purified to about 80% homogeneity. The substrate is composed of the SH2-SH3 fragments of PLC expressed in the form of a GST fusion protein.
The kinase activity of Tie2 is measured in a MOPS 20 mM pH 7.2 buffer, containing 10 mM MgCl2, 10 mM MnCl2, 1 mM DTT, 10 mM of glycerophosphate. In a 96-well FlashPlate plate maintained on ice, a reaction mixture is deposited, composed of 70 μL of kinase buffer containing 100 ng of enzyme GST-Tie2 per well. Next, 10 μL of the test molecule diluted in DMSO to a maximum concentration of 10% are added. For a given concentration, each measurement is performed four times. The reaction is initiated by adding 20 μL of solution containing 2 μg of GST-PLC, 2 μm of cold ATP and 1 μCi of ^33P[ATP]. After incubation for one hour at 37° C., the reaction is stopped by adding 1 volume (100 μl) of EDTA 200 mM. After removal of the incubation buffer, the wells are washed three times with 300 μL of PBS. The radioactivity is measured on a MicroBeta1450 Wallac.
The inhibition of the Tie2 activity is calculated and expressed as a percentage of inhibition relative to the control activity determined in the absence of compound.

human FAK = biological target: T3, human FAK (Homo sapiens, UniProt Q05397); experiment: FAK autophosphorylation inhibition, time-resolved fluorescence test (HTRF); type: biochemical; conditions: autophosphorylation of the enzyme, 15 μM ATP, 1 hour at 37° C.; read-out: FAK IC 50
T3 construct: The whole cDNA of human FAK, the N-terminal end of which has been labelled with histidine; made in house; host or cells: baculovirus expression system (pFastBac HTc)
Experimental: The inhibitory activity of the compounds on FAK is determined by measuring the inhibition of autophosphorylation of the enzyme using a time-resolved fluorescence test (HTRF).
The whole cDNA of human FAK, the N-terminal end of which has been labelled with histidine, was cloned in a pFastBac HTc baculovirus expression vector. The protein was expressed and purified to about 70% homogeneity.
The kinase activity is determined by incubating the enzyme (6.6 μg/mL) with different concentrations of test compound in a 50 mM Hepes pH=7.2, 10 mM MgCl2, 100 μm Na3VO4, 15 μM ATP buffer for 1 hour at 37° C. The enzymatic reaction is stopped by adding Hepes pH=7.0 buffer containing 0.4 mM KF, 133 mM EDTA, 0.1% BSA and the labelling is performed, for 1 to 2 hours at room temperature, by adding to this buffer an anti-Histidine antibody labelled with XL665 and a tyrosine phosphospecific monoclonal antibody conjugated to europium cryptate (Eu-K). […] The long-lasting signal specific for XL-665 is measured in a Packard Discovery plate counter. All the tests are performed in duplicate and the average of the two tests is calculated. The inhibition of the autophosphorylation activity of FAK with compounds of the invention is expressed as a percentage of inhibition relative to a control whose activity is measured in the absence of test compound. […]

T1 sequence (P35968 786-1356 limits assumed): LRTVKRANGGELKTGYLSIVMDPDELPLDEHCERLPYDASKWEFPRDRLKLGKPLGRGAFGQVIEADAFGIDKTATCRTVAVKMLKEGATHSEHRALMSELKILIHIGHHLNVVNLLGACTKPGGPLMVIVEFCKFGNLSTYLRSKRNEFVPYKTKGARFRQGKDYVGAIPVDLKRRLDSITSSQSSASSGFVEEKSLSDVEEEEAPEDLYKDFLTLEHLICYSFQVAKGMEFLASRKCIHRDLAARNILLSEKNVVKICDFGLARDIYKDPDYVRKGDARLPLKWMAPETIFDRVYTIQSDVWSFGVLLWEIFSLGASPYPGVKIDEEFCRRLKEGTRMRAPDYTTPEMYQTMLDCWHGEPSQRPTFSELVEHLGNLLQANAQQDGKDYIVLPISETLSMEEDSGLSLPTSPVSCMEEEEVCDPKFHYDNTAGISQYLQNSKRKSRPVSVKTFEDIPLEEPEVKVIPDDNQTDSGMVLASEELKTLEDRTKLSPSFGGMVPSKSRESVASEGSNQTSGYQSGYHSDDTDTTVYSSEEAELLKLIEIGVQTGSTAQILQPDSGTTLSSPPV
T2 sequence (Q02763 776-1124): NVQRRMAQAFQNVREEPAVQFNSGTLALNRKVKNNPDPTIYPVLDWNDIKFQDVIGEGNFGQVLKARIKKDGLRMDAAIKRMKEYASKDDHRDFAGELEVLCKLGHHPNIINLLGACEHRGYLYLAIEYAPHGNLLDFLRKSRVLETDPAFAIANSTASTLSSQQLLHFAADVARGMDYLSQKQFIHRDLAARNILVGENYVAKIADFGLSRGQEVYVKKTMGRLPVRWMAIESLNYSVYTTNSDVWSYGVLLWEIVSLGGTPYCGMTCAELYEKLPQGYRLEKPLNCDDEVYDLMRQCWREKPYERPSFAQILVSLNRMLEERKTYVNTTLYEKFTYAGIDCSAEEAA
T3 sequence (Q05397 whole entry): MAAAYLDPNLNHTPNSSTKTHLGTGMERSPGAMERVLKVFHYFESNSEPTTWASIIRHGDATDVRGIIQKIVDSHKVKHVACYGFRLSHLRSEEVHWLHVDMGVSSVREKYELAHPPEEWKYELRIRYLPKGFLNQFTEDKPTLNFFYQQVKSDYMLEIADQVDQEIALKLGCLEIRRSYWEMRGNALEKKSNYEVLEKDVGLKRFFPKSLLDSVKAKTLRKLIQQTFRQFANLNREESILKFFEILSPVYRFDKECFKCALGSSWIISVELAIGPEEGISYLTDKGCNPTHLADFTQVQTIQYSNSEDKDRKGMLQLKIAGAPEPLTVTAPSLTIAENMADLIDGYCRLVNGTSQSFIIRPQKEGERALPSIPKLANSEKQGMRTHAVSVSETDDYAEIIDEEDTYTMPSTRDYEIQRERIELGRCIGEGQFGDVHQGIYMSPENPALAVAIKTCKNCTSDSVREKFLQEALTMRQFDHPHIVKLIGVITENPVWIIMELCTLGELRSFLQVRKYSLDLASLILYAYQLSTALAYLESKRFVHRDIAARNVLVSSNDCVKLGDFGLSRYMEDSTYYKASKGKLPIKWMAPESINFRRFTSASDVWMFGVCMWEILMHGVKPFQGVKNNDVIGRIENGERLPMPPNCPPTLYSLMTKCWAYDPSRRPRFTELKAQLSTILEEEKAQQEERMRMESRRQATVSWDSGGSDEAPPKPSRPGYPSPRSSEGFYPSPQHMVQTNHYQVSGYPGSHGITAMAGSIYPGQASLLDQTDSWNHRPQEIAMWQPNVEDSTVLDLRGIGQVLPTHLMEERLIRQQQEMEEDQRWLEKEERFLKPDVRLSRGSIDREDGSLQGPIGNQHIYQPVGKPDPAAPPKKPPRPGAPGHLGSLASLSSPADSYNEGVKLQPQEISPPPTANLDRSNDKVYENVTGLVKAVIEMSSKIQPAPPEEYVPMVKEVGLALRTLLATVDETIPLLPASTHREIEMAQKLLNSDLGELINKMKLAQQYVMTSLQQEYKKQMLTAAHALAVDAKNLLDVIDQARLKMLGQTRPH

melting point | IC50 (human KDR enzyme) [µM] | IC50 (human Tie2) [µM] | IC50 (human FAK) [µM] | Compound
178 °C |  |  |  | CN(C)CC(=O)Nc1c[nH]c(C(N)=O)c1-c1ccc(NC(=O)Nc2cc(C(F)(F)F)ccc2F)cc1 [Example 6, 4-(2-Dimethylaminoacetylamino)-3-{4-[3-(2-fluoro-5-trifluoromethylphenyl)-ureido]phenyl}-1H-pyrrole-2-carboxamide]
194 °C |  |  |  | NC(=O)c1[nH]cc(C(=O)O)c1-c1ccc(NC(=O)Nc2cc(C(F)(F)F)ccc2F)cc1 [Example 38, 5-Carbamoyl-4-{4-[3-(2-fluoro-5-trifluoromethylphenyl)ureido]phenyl}-1H-pyrrole-3-carboxylic acid]
228.5 °C |  |  |  | CC(=O)Nc1c[nH]c(C(N)=O)c1-c1ccc(NC(=O)Nc2cc(C(F)(F)F)ccc2F)cc1 [Example 5, 4-Acetylamino-3-{4-[3-(2-fluoro-5-trifluoromethylphenyl)ureido]phenyl}-1H-pyrrole-2-carboxamide]
239.7 °C |  |  |  | NC(=O)c1[nH]cc(NC(=O)c2ccccc2)c1-c1ccc(NC(=O)Nc2cc(C(F)(F)F)ccc2F)cc1 [Example 7, 4-Benzoylamino-3-{4-[3-(2-fluoro-5-trifluoromethylphenyl)ureido]phenyl}-1H-pyrrole-2-carboxamide]
 | 0.352 | 0.111 |  | NC(=O)c1[nH]cc(NC(=O)Nc2cc(C(F)(F)F)ccc2F)c1-c1ccc(NC(=O)Nc2cc(C(F)(F)F)ccc2F)cc1 [Example 4, 4-[3-(2-Fluoro-5-trifluoromethylphenyl)ureido]-3-{4-[3-(2-fluoro-5-trifluoro-methylphenyl)ureido]phenyl}-1H-pyrrole-2-carboxamide]
 | 0.027 | 0.007 |  | NC(=O)c1[nH]cc(Cl)c1-c1ccc(NC(=O)Nc2cc(C(F)(F)F)ccc2F)cc1 [Example 44, 4-Chloro-3-{4-[3-(2-fluoro-5-trifluoromethylphenyl)ureido]phenyl}-1H-pyrrole-2-carboxamide]
325 °C |  |  |  | NC(=O)c1[nH]cnc1-c1ccc(NC(=O)Nc2cc(C(F)(F)F)ccc2F)cc1 [Example 46, 5-{4-[3-(2-Fluoro-5-trifluoromethylphenyl)ureido]phenyl}-3H-imidazole-4-carboxamide]
~ 174 °C |  |  |  | Cl.NC(=O)c1[nH]cc(N)c1-c1ccc(NC(=O)Nc2cc(C(F)(F)F)ccc2F)cc1
179 °C | 0.023 | 0.004 |  | CCOC(=O)c1c[nH]c(C(N)=O)c1-c1ccc(NC(=O)Nc2cc(C(F)(F)F)ccc2F)cc1 [Example 9, Ethyl 5-carbamoyl-4-{4-[3-(2-fluoro-5-trifluoromethylphenyl)ureido]phenyl}-1H-pyrrole-3-carboxylate]
196 °C |  |  |  | NC(=O)c1c[nH]c(C(N)=O)c1-c1ccc(NC(=O)Nc2cc(C(F)(F)F)ccc2F)cc1 [Example 40, 3-{4-[3-(2-Fluoro-5-trifluoromethylphenyl)ureido]phenyl}-1H-pyrrole-2,4-dicarboxamide]
 | 0.115 | 0.013 | 2.38 | NC(=O)c1[nH]ccc1-c1ccc(NC(=O)Nc2cc(C(F)(F)F)ccc2F)cc1 [Example 1, 3-{4-[3-(2-Fluoro-5-trifluoromethylphenyl)ureido]phenyl}-1H-pyrrole-2-carboxamide]
